Measured values taken from US8063067B2, “Hexenoic acid derivatives, processes for the preparation thereof, pharmaceutical compositions comprising them, and therapeutic applications thereof” (Merck Patent GmbH, priority 2004, dated 2011).
Marks after values point to notes of the source that are not given here.

Tests used:
[1] = target: T1, chimeric protein PPARα-Gal4 (Homo sapiens, UniProt Q07869); assay: PPARα-Gal4 chimera luciferase reporter transactivation in co-transfected CV-1 cells; type: cell-based; conditions: CV-1 cells (monkey kidney cells), 18 hours contact, fold relative to control cells without product
T1 construct: expressed in transfected cells; host or cells: CV-1 cells (monkey kidney cells)
T1 sequence (Q07869 239-466 limits assumed): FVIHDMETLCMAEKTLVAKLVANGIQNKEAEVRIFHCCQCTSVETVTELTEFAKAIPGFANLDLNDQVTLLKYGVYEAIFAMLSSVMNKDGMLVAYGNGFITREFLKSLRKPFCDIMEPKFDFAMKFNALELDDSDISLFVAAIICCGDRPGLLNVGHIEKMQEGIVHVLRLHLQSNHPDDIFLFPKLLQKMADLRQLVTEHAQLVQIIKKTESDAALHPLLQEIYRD
Description: (§1) The measurement of the PPAR activation was performed according to a technique described by Lehmann et al. (J. Biol. Chem., 270, (1995), 12953-12956).
(§2) CV-1 cells (monkey kidney cells) are co-transfected with an expression vector for the chimeric proteins PPARα-Gal4 or PPARγ-Gal4 and with a “reporter” plasmid that allows the expression of the luciferase gene placed under the control of a promoter comprising Gal4 response elements.
(§3) The cells are plated into 96-well microplates and co-transfected using a commercial reagent with the reporter plasmid (pG5-tk-pGL3) and the expression vector for the chimeric protein (PPARα-Gal4 or PPARγ-Gal4). After incubating for 4 hours, whole culture medium (comprising 10% foetal calf serum) is added to the wells. After 24 hours, the medium is removed and replaced with whole medium comprising the test products (50 μM, 25 μM and 12.5 μM final). The products are left in contact with the cells for 18 hours. The cells are then lysed and the luciferase activity is measured using a luminometer. A PPAR activation factor can then be calculated by means of activation of the expression of the reporter gene induced by the product (relative to the control cells that have not received any product).

[2] = target: T2, chimeric protein PPARγ-Gal4 (Homo sapiens, UniProt P37231); assay: PPARγ-Gal4 chimera luciferase reporter transactivation in co-transfected CV-1 cells; type: cell-based; conditions: CV-1 cells (monkey kidney cells), 18 hours contact, fold relative to control cells without product
T2 construct: expressed in transfected cells; host or cells: CV-1 cells (monkey kidney cells)
T2 sequence (P37231 238-503 limits assumed): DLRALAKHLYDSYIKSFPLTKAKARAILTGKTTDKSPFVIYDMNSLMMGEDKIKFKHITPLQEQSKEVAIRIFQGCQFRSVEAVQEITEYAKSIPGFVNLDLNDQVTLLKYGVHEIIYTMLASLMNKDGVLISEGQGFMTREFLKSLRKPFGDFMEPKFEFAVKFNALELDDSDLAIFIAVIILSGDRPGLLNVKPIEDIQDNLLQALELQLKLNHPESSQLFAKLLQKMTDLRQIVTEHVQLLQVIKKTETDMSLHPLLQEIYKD
Description: as §1, §2, §3

Gal4 alone = target: T3, Gal4 alone (Saccharomyces cerevisiae, UniProt P04386); assay: Luciferase reporter control with vector expressing Gal4 alone (no PPAR ligand binding domain); type: cell-based; conditions: CV-1 cells
T3 construct: expressed in transfected cells; host or cells: CV-1 cells (monkey kidney cells)
T3 sequence (P04386 whole entry, the tested form may be a part): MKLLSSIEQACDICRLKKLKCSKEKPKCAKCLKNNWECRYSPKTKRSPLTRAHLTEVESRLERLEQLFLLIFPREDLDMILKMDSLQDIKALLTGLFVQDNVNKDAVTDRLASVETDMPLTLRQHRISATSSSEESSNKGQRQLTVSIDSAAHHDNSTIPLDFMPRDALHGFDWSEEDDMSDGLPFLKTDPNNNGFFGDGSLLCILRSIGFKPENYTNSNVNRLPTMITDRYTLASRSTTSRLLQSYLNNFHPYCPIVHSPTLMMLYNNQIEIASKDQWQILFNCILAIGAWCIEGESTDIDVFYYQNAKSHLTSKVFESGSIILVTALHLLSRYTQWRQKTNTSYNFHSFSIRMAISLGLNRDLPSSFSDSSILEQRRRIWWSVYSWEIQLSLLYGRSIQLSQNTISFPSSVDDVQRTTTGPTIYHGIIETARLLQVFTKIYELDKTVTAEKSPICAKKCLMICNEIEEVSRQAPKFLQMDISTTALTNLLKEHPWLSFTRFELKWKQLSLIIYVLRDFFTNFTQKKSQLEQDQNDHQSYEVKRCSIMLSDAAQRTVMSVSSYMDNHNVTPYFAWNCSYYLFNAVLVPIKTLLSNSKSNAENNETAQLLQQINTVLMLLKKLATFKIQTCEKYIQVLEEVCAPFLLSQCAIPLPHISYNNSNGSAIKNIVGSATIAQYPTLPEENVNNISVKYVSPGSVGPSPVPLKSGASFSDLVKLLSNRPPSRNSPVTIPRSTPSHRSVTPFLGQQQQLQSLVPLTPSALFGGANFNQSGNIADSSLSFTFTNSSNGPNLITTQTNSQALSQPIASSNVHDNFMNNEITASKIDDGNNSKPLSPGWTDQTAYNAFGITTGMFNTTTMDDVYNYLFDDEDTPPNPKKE
Description: CV-1 cells (monkey kidney cells) are co-transfected with an expression vector for the chimeric proteins PPARα-Gal4 or PPARγ-Gal4 and with a “reporter” plasmid that allows the expression of the luciferase gene placed under the control of a promoter comprising Gal4 response elements. The cells are plated into 96-well microplates and co-transfected using a commercial reagent with the reporter plasmid (pG5-tk-pGL3) and the expression vector for the chimeric protein (PPARα-Gal4 or PPARγ-Gal4). After incubating for 4 hours, whole culture medium (comprising 10% foetal calf serum) is added to the wells. After 24 hours, the medium is removed and replaced with whole medium comprising the test products (50 μM, 25 μM and 12.5 μM final). The products are left in contact with the cells for 18 hours. The cells are then lysed and the luciferase activity is measured using a luminometer. A PPAR activation factor can then be calculated by means of activation of the expression of the reporter gene induced by the product (relative to the control cells that have not received any product). […] In the absence of the binding domain for the PPAR α or γ ligand (vector expressing Gal4 alone), the luciferase activity measured in the presence of this product is zero.

db/db mice = assay: Antidiabetic and hypolipidaemiant activity, oral, db/db mice; type: in vivo; conditions: oral 100 mg/kg/day
Description: The antidiabetic and hypolipidaemiant activity of the compounds was determined orally on db/db mice
17-week-old db/db mice are treated orally for 15 days with the compound of Example 2 (100 mg/kg/day). Each group studied comprises seven animals. After treatment for 15 days, retro-orbital samples are taken under mild anaesthesia and after fasting for four hours.
The following parameters were measured:
Assay of the glycaemia (glucose oxidase) and of the lipid parameters on the sera at D15 (COBAS): triglycerides, total cholesterol (CHOL), HDL cholesterol (HDL-C) and free fatty acids (FFA) (BioMérieux and Waco Chemicals assay kit).
The measurements reported represent mean values±standard error.

[3] = 15 days, p < 0.05 versus control
[4] = serum at D15, mean ± standard error

## O=C(O)C(CCC1=CCCCC1)Oc1ccc(C(F)(F)F)cc1 (stereo not shown) [Example 2, 4-cyclohex-1-enyl-2-[4-(trifluoromethyl)phenoxy]butanoic acid]
[1]; 12.5 μM
  PPAR activation factor, Chimer α: 3.6
[1]; 25 μM
  PPAR activation factor, Chimer α: 17.2
[1]; 50 μM
  PPAR activation factor, Chimer α: 24.9
[2]; 12.5 μM
  PPAR activation factor, Chimer γ: 2.2
[2]; 25 μM
  PPAR activation factor, Chimer γ: 5.2
[2]; 50 μM
  PPAR activation factor, Chimer γ: 9.3
Gal4 alone
  luciferase activity in the absence of the binding domain for the PPAR α or γ ligand: zero
db/db mice; 15 days, fasted four hours, mean ± standard error
  Glycaemia: 23.23 ± 5.43 mM
db/db mice; 15 days, not significant
  CHOL, % var. (percentage of variation versus control): +28% ns
db/db mice; 15 days, p < 0.01 versus control
  FFA, % var. (percentage of variation versus control): −34% **
db/db mice; [3]
  Glycaemia, % var. (percentage of variation versus control): −26% *
  HDL-C, % var. (percentage of variation versus control): +21% *
  Triglycerides, % var. (percentage of variation versus control): −55% *
db/db mice; [4]
  CHOL (total cholesterol): 6.04 ± 0.61 mM
  FFA (free fatty acids): 0.48 ± 0.12 mM
  HDL-C: 4.26 ± 0.61 mM
  Triglycerides: 1.05 ± 0.29 mM
other
  melting point: 109 to 111 °C

## C=CCCC(Oc1ccc(-c2ccc(OC)cc2)cc1)C(=O)O (stereo not shown) [Example 8]
other
  melting point: 128 to 130 °C

## O=C(O)C(CCC1=CCCCC1)Oc1ccc2oc3ccccc3c2c1 (stereo not shown) [Example 10]
other
  melting point: 142 to 144 °C

## O=C(O)C(CCC1=CCCC1)Oc1ccc2oc3ccccc3c2c1 (stereo not shown) [Example 11]
other
  melting point: 140 to 142 °C

## C=CCCC(Oc1ccc(-c2ccc(F)cc2)cc1)C(=O)O (stereo not shown) [Example 12]
[1]; 12.5 μM
  PPAR activation factor, Chimer α: 4.3
[1]; 25 μM
  PPAR activation factor, Chimer α: 13.1
[1]; 50 μM
  PPAR activation factor, Chimer α: 19.9
[2]; 12.5 μM
  PPAR activation factor, Chimer γ: 1
[2]; 25 μM
  PPAR activation factor, Chimer γ: 3.4
[2]; 50 μM
  PPAR activation factor, Chimer γ: 15.6
other
  melting point: 97 °C

## O=C(O)C(CCC1=CCCCC1)Oc1ccc(Cl)cc1 (stereo not shown) [Example 13]
[1]; 12.5 μM
  PPAR activation factor, Chimer α: 6
[1]; 25 μM
  PPAR activation factor, Chimer α: 4.8
[1]; 50 μM
  PPAR activation factor, Chimer α: 12.5
[2]; 12.5 μM
  PPAR activation factor, Chimer γ: 7.2
[2]; 25 μM
  PPAR activation factor, Chimer γ: 5.3
[2]; 50 μM
  PPAR activation factor, Chimer γ: 8.5

## C=CCCC(Oc1ccc(-c2ccc(Cl)cc2)cc1)C(=O)O (stereo not shown) [Example 16]
other
  melting point: 127 °C

## C=CCCC(Oc1ccc(C(=O)c2ccc(Cl)cc2)cc1)C(=O)O (stereo not shown) [Example 17]
other
  melting point: 141 °C

## O=C(O)C(CCC1=CCCCC1)Oc1ccc(-c2cc3ccccc3s2)cc1 (stereo not shown) [Example 18]
other
  melting point: 171 to 174 °C

## O=C(O)C(CCC1=CCCCC1)Oc1ccc(-c2ccc(F)cc2)cc1 (stereo not shown) [Example 19]
other
  melting point: 156 to 158 °C

## C=CCCC(Oc1ccc(C(F)(F)F)cc1)C(=O)O (stereo not shown) [Example 86]
other
  melting point: 70 °C

## C=CCCC(Oc1ccc(Oc2ccccc2)cc1)C(=O)O (stereo not shown) [Example 87]
other
  melting point: 61 °C

## C=CCCC(Oc1cccc(OCc2ccc3ccccc3n2)c1)C(=O)O (stereo not shown) [Example 88]
other
  melting point: 125 °C

## C=CCCC(Oc1ccc(-c2csc(C)n2)cc1)C(=O)O (stereo not shown) [Example 89]
other
  melting point: 120 °C

## C=CCCC(Oc1ccc(-c2cc(C)ccc2C)cc1)C(=O)O (stereo not shown) [Example 90]
other
  melting point: 95 to 98 °C

## C=CCCC(Oc1ccc(C(=O)/C=C/c2ccccc2)cc1)C(=O)O (stereo not shown) [Example 92]
other
  melting point: 125 °C

## C=CCCC(Oc1ccc(-c2csc3ccccc23)cc1)C(=O)O (stereo not shown) [Example 93]
other
  melting point: 98 °C

## C=CCCC(Oc1ccc(-c2cc3ccccc3s2)cc1)C(=O)O (stereo not shown) [Example 94]
other
  melting point: 183 °C

## C=CCCC(Oc1ccc(-c2ccc(OC(F)(F)F)cc2)cc1)C(=O)O (stereo not shown) [Example 95]
other
  melting point: 115 to 116 °C

## C=CCCC(Oc1ccc(-c2cccc(F)c2)cc1)C(=O)O (stereo not shown) [Example 97]
other
  melting point: 110 °C

## C=CCCC(Oc1ccc(-c2ccc(F)c(F)c2)cc1)C(=O)O (stereo not shown) [Example 98]
other
  melting point: 70 to 72 °C
